Experimental data: patent US8785452B2, “Anti-infective compounds” (priority 2008, dated 2014)
Read-outs that look alike come from different tables or passages of the source.

Key:
Raw264.7 cells [1] = assay: Cell number (CellNb) from image analysis of the phenotypic cell-based assay; conditions: for QIM Confirm CellNb 0.2 uM / QIM Confirm CellNb 2 uM / QIM Confirm CellNb 20 uM: confirmation; for Primary QIM CellNb: primary screen, 20 μM
[2] = system: M. tuberculosis H37Rv-GFP; assay: microbe, parasite or virus in culture; type: cell-based, Mycobacterium tuberculosis; conditions: Mycobacterium tuberculosis, H37RV, Macrophage
[3] = system: M. tuberculosis H37Rv-GFP; assay: microbe, parasite or virus in culture; type: cell-based; conditions: Mycobacterium tuberculosis
Raw264.7 cells [4] = conditions: mouse, 5 days; for Primary QIM CellNb: 20 μM
[5] = confirmation, 20 uM, read-out: QIM Confirm % Inhibition 20 uM
[6] = primary screen, 20 μM, read-out: Primary QIM % Inhibition
[7] = confirmation, 20 uM, intracellular, read-out: QIM Confirm % Inhibition 20 uM
[8] = primary screen, 20 μM, intracellular, read-out: Primary QIM % Inhibition

Structure (SMILES)	Primary QIM CellNb (Raw264.7 cells [1])	inhibition at 20 µM [2, 5] [%]	inhibition at 20 µM [2, 6] [%]	Primary QIM CellNb (Raw264.7 cells [4])	also measured
O=C(N/N=C/c1cccc([N+](=O)[O-])c1)c1ccncc1 [IPK 000 041 47]	362.8	95.5	102	–	QIM Confirm CellNb 0.2 uM (Raw264.7 cells [1]): 479.8; QIM Confirm CellNb 2 uM (Raw264.7 cells [1]): 516.1; QIM Confirm CellNb 20 uM (Raw264.7 cells [1]): 345.8; inhibition at 0.2 µM ([2]; confirmation, 0.2 uM, intracellular, read-out: QIM Confirm % Inhibition 0.2 uM): 74.5%; inhibition at 2 µM ([2]; confirmation, 2 uM, intracellular, read-out: QIM Confirm % Inhibition 2 uM): 102%; inhibition at 0.2 µM ([3]; read-out: QUM Confirm % Inhibition 0.2 uM): 43.8%; inhibition at 2 µM ([3]; read-out: QUM Confirm % Inhibition 2 uM): 82.3%; inhibition at 20 µM ([3]; read-out: QUM Confirm % Inhibition 20 uM): 99.5%
O=C(N/N=C/c1ccc([N+](=O)[O-])cc1)c1ccncc1 [IPK 000 041 48]	315.3	88.4	84.5	97.5	–
CCOc1ccc(/C=N/NC(=O)c2ccncc2)cc1 [IPK 000 041 49]	336.5	94.5	83.8	102.3	–
Cc1ccc(/C=N/NC(=O)c2ccncc2)cc1 [IPK 000 041 50]	296.3	90.8	81.6	102.2	–
O=C(N/N=C/c1ccc(Br)cc1)c1ccncc1 [IPK 000 041 51]	351.3	94	89	102.9	–
O=C(N/N=C/c1ccc(F)cc1)c1ccncc1 [IPK 000 041 52]	262.5	93.7	75.6	103.2	–
O=C(N/N=C/c1ccc(Cl)cc1)c1ccncc1 [IPK 000 041 53]	426.8	97	100	98.1	–
Cc1cccn2c(=O)c(C=O)c(Nc3cccc(Cl)c3)nc12 [IPK 000 042 07]	198.0	107	34.7	104.0	–
O=C(Nc1sc2c(c1C(=O)Nc1ccccc1)CCC2)c1cccs1 [IPK 000 042 30]	193.8	95.9	73.7	75.2	–
N#Cc1cc(Br)c([N+](=O)[O-])cc1C#N [IPK 000 042 72]	152.0	57.6	11.9	−1.9	QIM Confirm CellNb 2 uM (Raw264.7 cells [1]): 96.1; QIM Confirm CellNb 2 uM (Raw264.7 cells [4]): 82.5
CC(=O)Oc1ccccc1C(=S)Nc1ccccc1 [IPK 000 042 77]	367.0	48.9	105	7.7	–
Oc1c(Cl)cc(Cl)cc1C(=S)Nc1ccccc1 [IPK 000 042 78]	194.5	91.7	73.9	33.0	–
COc1ccc(OC)c(/C=N/NC(=O)c2ccncc2)c1 [IPK 000 042 93]	321.8	106	109	105.1	–
COc1ccc(/C=N/NC(=O)c2ccncc2)cc1OC [IPK 000 042 95]	143.5	98.8	64.7	106.0	–
CN(C)c1ccc(/C=N/NC(=O)c2ccncc2)cc1 [IPK 000 042 96]	216.3	105	84.3	101.1	–
COc1cc(/C=N/NC(=O)c2ccncc2)ccc1O [IPK 000 042 97]	307.8	103	99.7	99.2	–
O=C(N/N=C/c1cc([N+](=O)[O-])ccc1O)c1ccncc1 [IPK 000 042 98]	350.0	105	102	95.3	–
CCOc1cc(/C=N/NC(=O)c2ccncc2)ccc1O [IPK 000 042 99]	364.0	106	103	104.1	–
COc1ccc(/C=N/NC(=O)c2ccncc2)c(OC)c1 [IPK 000 043 00]	333.3	102	104	101.4	–
COc1ccccc1/C=N/NC(=O)c1ccncc1 [IPK 000 043 01]	287.8	103	86.6	103.6	–
COc1cccc(/C=N/NC(=O)c2ccncc2)c1OC [IPK 000 043 02]	229.5	99.8	81.1	98.7	–

Structure (SMILES)	Primary QIM CellNb (Raw264.7 cells [1])	inhibition at 20 µM [2, 5] [%]	inhibition at 20 µM [2, 6] [%]	Primary QIM CellNb (Raw264.7 cells [4])	also measured
O=C(N/N=C/c1ccccc1Cl)c1ccncc1 [IPK 000 043 05]	228.8	104	97.1	101.6	QIM Confirm CellNb 20 uM (Raw264.7 cells [4]): 80.2
CCCCOc1ccc(/C=N/NC(=O)c2ccncc2)cc1 [IPK 000 043 06]	200.3	98	81.4	98.1	–
O=C(N/N=C/c1ccc(O)cc1)c1ccncc1 [IPK 000 043 07]	303.5	98.6	104	102.5	–
COc1cccc(/C=N/NC(=O)c2ccncc2)c1O [IPK 000 043 08]	255.5	95.1	87.3	102.7	–
O=C(N/N=C/c1cccc(Br)c1)c1ccncc1 [IPK 000 043 09]	258.5	102	95.8	100.5	–
O=C(N/N=C/c1cccc(Cl)c1Cl)c1ccncc1 [IPK 000 043 10]	176.8	98.3	14.3	92.7	–
O=C(N/N=C/c1ccc(O)c([N+](=O)[O-])c1)c1ccncc1 [IPK 000 043 11]	366.0	104	104	99.5	–
O=C(N/N=C/c1cc2ccccc2[nH]1)c1ccncc1 [IPK 000 043 12]	195.0	100	69.9	104.6	–
O=C(N/N=C/c1ccc(Cl)cc1Cl)c1ccncc1 [IPK 000 043 13]	177.8	104	49.2	101.6	–
Cc1cccc(/C=N/NC(=O)c2ccncc2)c1 [IPK 000 043 26]	347.3	102	109	102.2	QIM Confirm CellNb 0.2 uM (Raw264.7 cells [1]): 413.6; QIM Confirm CellNb 2 uM (Raw264.7 cells [1]): 523.3; QIM Confirm CellNb 20 uM (Raw264.7 cells [1]): 430.3; QIM Confirm CellNb 0.2 uM (Raw264.7 cells [4]): 98.6; QIM Confirm CellNb 2 uM (Raw264.7 cells [4]): 99.5; QIM Confirm CellNb 20 uM (Raw264.7 cells [4]): 72.4
CCOc1ccccc1/C=N/NC(=O)c1ccncc1 [IPK 000 043 27]	125.8	102	47.6	105.2	–
O=C(N/N=C/c1ccc(O)cc1O)c1ccncc1 [IPK 000 043 28]	326.5	95.9	94.9	87.1	–
Cc1ccccc1/C=N/NC(=O)c1ccncc1 [IPK 000 043 29]	415.5	100	111	105.2	–
O=C(N/N=C/C=C/c1ccc([N+](=O)[O-])cc1)c1ccncc1 [IPK 000 043 30]	305.0	102	107	100.8	–
CCc1ccc(/C=N/NC(=O)c2ccncc2)cc1 [IPK 000 043 31]	334.0	100	94.6	101.5	–
CC(C)c1ccc(/C=N/NC(=O)c2ccncc2)cc1 [IPK 000 043 32]	164.0	102	60.5	94.5	–
O=C(N/N=C/c1cccs1)c1ccncc1 [IPK 000 043 33]	270.8	104	83	94.5	–
CSc1nsc(SCc2ccc(C(=O)Nc3ccc(C)cc3C)cc2)n1 [IPK 000 125 08]	–	–	–	–	inhibition at 20 µM [2, 7]: 65.1%; inhibition at 20 µM [2, 8]: 72.8%; QIM Confirm CellNb 0.2 uM (Raw264.7 cells [4]): 388.9
O=C(Nc1ccccc1)Nc1ccc(Br)c(Cl)c1 [IPK 000 170 27]	–	–	–	–	inhibition at 20 µM [2, 7]: 18.9%; inhibition at 20 µM [2, 8]: -72.4%; QIM Confirm CellNb 20 uM (Raw264.7 cells [4]): 46.9
Cc1cc(C)cc(NC(=O)c2cccs2)c1 [IPK 000 192 45]	–	–	–	–	inhibition at 20 µM [2, 7]: 65.4%; inhibition at 20 µM [2, 8]: 88.8%; QIM Confirm CellNb 0.2 uM (Raw264.7 cells [4]): 334.0
CN(C)c1ccc(/C=C2/c3ccccc3-c3ccc(C(=O)CCCCN4CCCCC4)cc32)cc1 [IPK 000 198 53]	–	–	–	10.2	inhibition at 20 µM [2, 7]: 41.9%; inhibition at 20 µM [2, 8]: 58.5%
